Results taken from US11214803B2, “Modulators of YAP1 expression” (Ionis Pharmaceuticals, Inc., priority 2019, dated 2022).
Strand notation (5' to 3'): a small letter for the sugar, then the base; units joined by * are phosphorothioate-linked, units joined directly phosphodiester-linked; [ ] holds rarer units or linkages, { } end groups; capitals alone tell only the bases. k = constrained ethyl (cEt); [5mC] = 5-methylcytosine; d = 2'-deoxy (DNA)

These substances were tested on Yap1 mRNA (assay: Antisense inhibition of human Yap1 in A-431 cells by cEt gapmers, single dose (Example 3, RTS36584)). Settings: Table 8; A-431 cells, 5,000 cells per well, free uptake, 2,000 nM, approximately 48 hours; RTS36584; normalized to RIBOGREEN; Yap1 mRNA relative to untreated control cells.
Format: cell-based
Method in brief: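 A-431 cells (5,000/well) took up the 3-10-3 cEt gapmers by free uptake at 2,000 nM for about 48 h. Yap1 mRNA was measured by RT-qPCR with primer probe set RTS36584, normalized to RiboGreen total RNA, and given as % of untreated control.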

| Substance | YAP1 (% UTC) |
| --- | --- |
| 958353 (antisense kT*k[5mC]*kG*dG*dT*d[5mC]*dT*d[5mC]*d[5mC]*dG*dA*dG*dT*k[5mC]*k[5mC]*k[5mC]) [Compound 958353] | 43 |
| 958397 (antisense k[5mC]*kA*kG*dG*d[5mC]*dT*dA*dT*dT*dA*dA*dG*d[5mC]*kT*kG*kT) [Compound 958397] | 127 |
| 958411 (antisense k[5mC]*kT*kT*dT*dA*d[5mC]*d[5mC]*dA*dA*dA*dA*d[5mC]*dG*kA*kG*kG) [Compound 958411] | 90 |
| 958386 (antisense kG*kG*k[5mC]*dG*d[5mC]*dG*d[5mC]*dG*d[5mC]*dA*dT*dT*dG*kT*kG*k[5mC]) [Compound 958386] | 111 |
| 958385 (antisense kG*k[5mC]*kG*d[5mC]*dG*d[5mC]*dG*d[5mC]*dA*dT*dT*dG*dT*kG*k[5mC]*kA) [Compound 958385] | 115 |
| 958350 (kT*k[5mC]*k[5mC]*dG*dA*dG*dT*d[5mC]*d[5mC]*d[5mC]*d[5mC]*dG*d[5mC]*kG*kG*kA; antisense) [Compound 958350] | 106 |
| 958391 (antisense kA*kG*k[5mC]*dG*dA*dA*dG*dG*dT*dG*d[5mC]*dG*dG*kA*kG*k[5mC]) [Compound 958391] | 102 |
| 958414 (antisense k[5mC]*kA*kG*dA*dA*dT*dT*d[5mC]*d[5mC]*d[5mC]*dA*dA*dG*k[5mC]*kT*kA) [Compound 958414] | 73 |

Same assay, conditions: Table 9; A-431 cells, 5,000 cells per well, free uptake, 2,000 nM, approximately 48 hours; RTS36584; normalized to RIBOGREEN; Yap1 mRNA relative to untreated control cells

| Substance | YAP1 (% UTC) |
| --- | --- |
| 958766 (antisense kT*kA*kA*d[5mC]*dA*dT*dA*dT*dG*dT*d[5mC]*dT*dA*k[5mC]*kT*k[5mC]) [Compound 958766] | 23 |
| 958651 (kA*kA*k[5mC]*dT*dA*dA*dA*dG*dA*dG*dG*dA*d[5mC]*kT*kT*kA; antisense) [Compound 958651] | 62 |
| 958491 (kA*k[5mC]*kT*dA*dA*dA*dT*dG*d[5mC]*dT*dG*dT*dG*kA*k[5mC]*kA; antisense) [Compound 958491] | 4 |
| 958781 (antisense kG*kT*k[5mC]*dA*dT*d[5mC]*dT*dA*dT*dG*dT*dG*dT*k[5mC]*k[5mC]*kT) [Compound 958781] | 6 |
| 958621 (antisense kA*kA*k[5mC]*dG*dA*dG*dG*dG*dT*d[5mC]*dA*dA*dG*k[5mC]*k[5mC]*kT) [Compound 958621] | 29 |
| 958636 (antisense k[5mC]*k[5mC]*kG*d[5mC]*dA*d[5mC]*d[5mC]*dG*d[5mC]*dG*dG*d[5mC]*d[5mC]*k[5mC]*kG*kG) [Compound 958636] | 126 |

Same assay, conditions: Table 10; A-431 cells, 5,000 cells per well, free uptake, 2,000 nM oligonucleotide, approx. 48 hours; primer probe set RTS36584; Yap1 mRNA normalized to RIBOGREEN, percent of untreated control

| Substance | YAP1 (% UTC) |
| --- | --- |
| 958722 (antisense k[5mC]*kA*kT*dA*dA*dT*dA*dG*dG*dA*d[5mC]*dA*d[5mC]*kA*kA*k[5mC]) [Compound 958722] | 59 |
| 958562 (k[5mC]*kA*kT*dT*dG*dA*dA*dA*dG*dA*d[5mC]*d[5mC]*d[5mC]*kT*kT*kA; antisense) [Compound 958562] | 6 |

Same assay, conditions: Table 11; A-431 cells, 5,000 cells per well, free uptake, 2,000 nM oligonucleotide, approx. 48 hours; primer probe set RTS36584; Yap1 mRNA normalized to RIBOGREEN, percent of untreated control

| Substance | YAP1 (% UTC) |
| --- | --- |
| 958788 (antisense k[5mC]*kT*kG*dG*dG*d[5mC]*dA*dA*dA*dG*dT*dT*d[5mC]*k[5mC]*kT*k[5mC]) [Compound 958788] | 54 |

Same assay, conditions: Table 12; A-431 cells, 5,000 cells per well, free uptake, 2,000 nM modified oligonucleotide, approx. 48 hours; RTS36584; normalized to RIBOGREEN; Yap1 mRNA relative to untreated control cells

| Substance | YAP1 (% UTC) |
| --- | --- |
| 958539 (kT*k[5mC]*kT*dA*dT*d[5mC]*d[5mC]*dA*dG*dG*dG*dT*d[5mC]*kA*kA*kT; antisense) [Compound 958539] | 11 |
| 958544 (kG*k[5mC]*kT*dA*dA*dA*dT*dT*d[5mC]*dA*dA*d[5mC]*dT*kA*k[5mC]*k[5mC]; antisense) [Compound 958544] | 8 |
| 958664 (kA*k[5mC]*kG*dA*dA*d[5mC]*dT*dA*dA*dG*dG*dT*dG*kT*kA*k[5mC]; antisense) [Compound 958664] | 40 |

Same assay, conditions: Table 13; A-431 cells, 5,000 cells per well, free uptake, 2,000 nM modified oligonucleotide, approx. 48 hours; RTS36584; normalized to RIBOGREEN; Yap1 mRNA relative to untreated control cells

| Substance | YAP1 (% UTC) |
| --- | --- |
| 958690 (antisense kT*kG*kG*dA*d[5mC]*dT*d[5mC]*dT*dT*dG*dA*dT*d[5mC]*kA*k[5mC]*kA) [Compound 958690] | 26 |
| 958630 (antisense kG*k[5mC]*kG*dG*dT*dA*dA*d[5mC]*dT*d[5mC]*dT*dT*d[5mC]*kT*kT*kT) [Compound 958630] | 52 |
| 958635 (antisense kG*kT*kT*dT*dA*dG*dG*d[5mC]*dA*dA*dG*d[5mC]*dA*kG*k[5mC]*kT) [Compound 958635] | 43 |
| 958610 (antisense kA*kG*kG*dT*dA*dA*d[5mC]*dA*dT*dT*dG*dG*dT*kA*k[5mC]*kT) [Compound 958610] | 34 |
| 958815 (kG*kG*kG*d[5mC]*dG*dA*dG*dG*dA*dG*dA*d[5mC]*dA*kG*kG*kT; antisense) [Compound 958815] | 16 |

Same assay, conditions: Table 26; Yap1 mRNA by 3-10-3 cEt gapmers targeting SEQ ID NO.: 1, and 2; percent of untreated control

| Substance | YAP1 (% UTC) |
| --- | --- |
| 1074988 (antisense kA*k[5mC]*k[5mC]*dG*d[5mC]*dG*dG*d[5mC]*dG*dG*dA*dG*dT*kG*kG*kA) [compound 1074988] | 94 |
| 1074796 (k[5mC]*kT*k[5mC]*d[5mC]*dA*dA*dA*dT*d[5mC]*dA*dA*dT*dG*kT*kG*k[5mC]; antisense) [compound 1074796] | 22 |
| 1074604 (DNA kT*kT*kA*dT*dT*dA*dA*dT*d[5mC]*dT*dG*dA*dT*k[5mC]*kA*k[5mC]) [compound 1074604] | 12 |

Same assay, conditions: Table 27; Yap1 mRNA by 3-10-3 cEt gapmers targeting SEQ ID NO.: 1, and 2; percent of untreated control

| Substance | YAP1 (% UTC) |
| --- | --- |
| 1074797 (kA*k[5mC]*kT*d[5mC]*d[5mC]*dA*dA*dA*dT*d[5mC]*dA*dA*dT*kG*kT*kG; antisense) [compound 1074797] | 31 |
| 1075021 (antisense kT*kT*kA*d[5mC]*dA*dA*d[5mC]*d[5mC]*dT*dA*dG*dA*dT*kT*kT*kG) [compound 1075021] | 68 |
| 1076237 (kA*k[5mC]*kT*dA*dA*dA*dG*dG*dA*d[5mC]*dA*dA*dA*kG*kG*kT; antisense) [compound 1076237] | 109 |

Same assay, conditions: Table 28; Yap1 mRNA as percent of untreated control; 3-10-3 cEt gapmers targeting SEQ ID NO.: 1, and 2

| Substance | YAP1 (% UTC) |
| --- | --- |
| 1075278 (antisense kT*kA*kT*dA*d[5mC]*dT*dA*dA*d[5mC]*dA*dT*dT*d[5mC]*kA*k[5mC]*kG) [compound 1075278] | 48 |
| 1074126 (k[5mC]*kT*kG*dG*d[5mC]*dG*dG*d[5mC]*dT*dG*d[5mC]*dG*d[5mC]*k[5mC]*kT*k[5mC]; antisense) [compound 1074126] | 111 |

Same assay, conditions: Table 29; Yap1 mRNA as percent of untreated control; 3-10-3 cEt gapmers targeting SEQ ID NO.: 1, and 2

| Substance | YAP1 (% UTC) |
| --- | --- |
| 1075503 (kG*k[5mC]*kT*dG*dA*dA*dA*dA*dA*dG*dG*dG*d[5mC]*kT*kT*kA; antisense) [compound 1075503] | 66 |
| 1076335 (antisense k[5mC]*kA*k[5mC]*d[5mC]*dT*dA*dT*dA*dA*dG*dG*dA*dA*kT*kG*kG) [compound 1076335] | 80 |
| 1074575 (DNA kA*k[5mC]*kA*dT*dT*dA*dT*dG*dA*dA*d[5mC]*d[5mC]*dT*kA*k[5mC]*kT) [compound 1074575] | 14 |

Same assay, conditions: Table 35; Yap1 mRNA as percent of untreated control; 3-10-3 cEt gapmers targeting SEQ ID NO: 1 and 2; single dose

| Substance | YAP1 (% UTC) |
| --- | --- |
| 1075381 (antisense kT*kA*kT*dT*dA*d[5mC]*d[5mC]*d[5mC]*dT*dA*d[5mC]*dT*d[5mC]*kA*kT*kA) [compound 1075381] | 89 |
| 1075413 (antisense k[5mC]*kA*kT*dA*dA*d[5mC]*dT*dA*d[5mC]*dA*dT*d[5mC]*dG*kA*k[5mC]*kA) [compound 1075413] | 34 |
| 1076053 (kT*kA*k[5mC]*d[5mC]*dA*dA*d[5mC]*dA*dA*dG*dG*d[5mC]*dA*kT*k[5mC]*kA; antisense) [compound 1076053] | 55 |
